Source: ChEMBL document CHEMBL1148493, “A combination of docking/dynamics simulations and pharmacophoric modeling to discover new dual c-Src/Abl kinase inhibitors” (J Med Chem, 2006)
One block for each compound: values may come before it.

Experiments:
[1] = molecular target: Tyrosine-protein kinase ABL1 (Homo sapiens) (UniProt P00519)
Description: Binding affinity to human recombinant Abl

[2] = molecular target: Proto-oncogene tyrosine-protein kinase Src (Homo sapiens, UniProt P12931); test: Binding affinity to human recombinant Src
Proto-oncogene tyrosine-protein kinase Src, sequence (P12931 2-536 limits assumed): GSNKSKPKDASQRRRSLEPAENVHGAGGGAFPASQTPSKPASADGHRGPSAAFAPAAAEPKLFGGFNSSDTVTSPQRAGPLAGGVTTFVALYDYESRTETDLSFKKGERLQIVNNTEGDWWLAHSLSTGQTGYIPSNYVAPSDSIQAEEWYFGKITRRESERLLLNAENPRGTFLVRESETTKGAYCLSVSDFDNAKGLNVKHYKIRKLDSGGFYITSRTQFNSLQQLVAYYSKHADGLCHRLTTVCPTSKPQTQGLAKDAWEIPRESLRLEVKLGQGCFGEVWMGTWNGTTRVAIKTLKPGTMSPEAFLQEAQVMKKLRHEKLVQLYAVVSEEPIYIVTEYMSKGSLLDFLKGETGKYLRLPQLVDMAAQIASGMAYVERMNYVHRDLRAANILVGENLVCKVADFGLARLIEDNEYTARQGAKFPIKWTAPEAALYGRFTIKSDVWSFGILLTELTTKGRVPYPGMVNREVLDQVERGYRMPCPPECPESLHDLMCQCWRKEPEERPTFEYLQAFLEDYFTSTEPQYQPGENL

Tyrosine-protein kinase ABL1 (Homo sapiens), sequence (P00519 whole entry): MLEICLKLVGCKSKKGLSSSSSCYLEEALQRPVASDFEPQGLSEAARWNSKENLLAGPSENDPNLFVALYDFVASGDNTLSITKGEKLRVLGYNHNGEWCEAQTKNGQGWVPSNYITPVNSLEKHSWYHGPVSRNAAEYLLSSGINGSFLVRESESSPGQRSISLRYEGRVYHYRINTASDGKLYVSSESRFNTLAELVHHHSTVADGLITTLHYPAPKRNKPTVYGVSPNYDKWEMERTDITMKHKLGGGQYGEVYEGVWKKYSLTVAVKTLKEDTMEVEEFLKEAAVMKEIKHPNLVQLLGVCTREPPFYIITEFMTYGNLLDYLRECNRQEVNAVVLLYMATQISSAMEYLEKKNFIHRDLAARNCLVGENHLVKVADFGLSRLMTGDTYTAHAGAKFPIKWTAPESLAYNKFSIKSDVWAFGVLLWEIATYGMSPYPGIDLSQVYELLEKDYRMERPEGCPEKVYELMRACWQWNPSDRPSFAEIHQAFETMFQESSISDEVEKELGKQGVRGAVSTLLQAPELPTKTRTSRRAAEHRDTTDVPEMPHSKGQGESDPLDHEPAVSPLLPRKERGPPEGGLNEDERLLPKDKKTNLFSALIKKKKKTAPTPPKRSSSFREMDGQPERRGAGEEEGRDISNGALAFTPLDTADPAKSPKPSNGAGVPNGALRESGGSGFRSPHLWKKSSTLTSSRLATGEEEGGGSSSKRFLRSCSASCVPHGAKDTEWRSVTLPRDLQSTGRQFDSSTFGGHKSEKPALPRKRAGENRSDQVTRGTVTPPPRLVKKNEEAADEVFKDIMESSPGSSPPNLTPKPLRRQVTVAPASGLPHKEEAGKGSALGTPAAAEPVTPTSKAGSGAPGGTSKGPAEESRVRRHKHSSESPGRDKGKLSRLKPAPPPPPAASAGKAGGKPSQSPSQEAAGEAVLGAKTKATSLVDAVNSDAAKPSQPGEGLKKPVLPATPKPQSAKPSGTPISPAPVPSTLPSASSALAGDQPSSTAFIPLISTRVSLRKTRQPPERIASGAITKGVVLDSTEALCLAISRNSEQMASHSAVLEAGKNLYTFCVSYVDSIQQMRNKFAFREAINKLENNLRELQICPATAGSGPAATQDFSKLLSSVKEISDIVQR

Structure (SMILES): Cc1ccc(-c2cnc(NC(=O)c3ccc(Br)cc3)s2)cc1
ID50 [2]: > 2 mM | ID50 [1]: > 2 mM

Structure (SMILES): O=C(Nc1nnc(CCc2ccccc2)s1)c1ccccc1
Ki [2]: 0.0029 mM | ID50 [1]: > 2 mM

Structure (SMILES): O=C(Nc1ccccc1)Nc1nnc(Cc2ccccc2)s1
ID50 [2]: > 2 mM

Structure (SMILES): O=C(Nc1nnc(CCc2ccccc2)s1)c1ccc(Cl)cc1Cl
ID50 [1]: > 2 mM

Next, values leading:

ID50 [1]: > 2 mM
Structure (SMILES): CCN(CC)c1ccc(/C=C2/C(=O)NN(c3ccc(I)cc3)C2=O)c(O)c1

ID50 [1]: > 2 mM
Structure (SMILES): O=C1NN(c2ccccc2)C(=O)/C1=C\c1ccccc1OCc1ccccc1

ID50 [2]: > 2 mM
Structure (SMILES): O=C1NN(c2ccc(I)cc2)C(=O)/C1=C\c1ccc(N2CCOCC2)cc1

ID50 [1]: > 2 mM
Structure (SMILES): COc1ccc(C(=O)Nc2nnc(Cc3c[nH]c4ccccc34)s2)cc1
